From article PMC8954547, “Nonpeptidic Z360-Analogs Tagged with Trivalent Radiometals as Anti-CCK2R Cancer Theranostic Agents: A Preclinical Study” (Pharmaceutics, 2022)
Blank lines part the entries; values can stand above or below the compound they belong to.

Assays:
[1] = biological target: T1, human CCK2i4svR splice variant (Homo sapiens, UniProt P32239); experiment: Competition binding against [125I][I-Tyr12,Leu15]gastrin-17 in HEK293-CCK2i4svR cell membranes; details: vs [125I][I-Tyr12,Leu15]gastrin-17, HEK293-CCK2i4svR cell membranes, 1 h 22 °C; mean ± SD
T1 construct: expressed in transfected cells; membrane homogenates
T1 sequence (P32239 1-516 isoform P32239-2): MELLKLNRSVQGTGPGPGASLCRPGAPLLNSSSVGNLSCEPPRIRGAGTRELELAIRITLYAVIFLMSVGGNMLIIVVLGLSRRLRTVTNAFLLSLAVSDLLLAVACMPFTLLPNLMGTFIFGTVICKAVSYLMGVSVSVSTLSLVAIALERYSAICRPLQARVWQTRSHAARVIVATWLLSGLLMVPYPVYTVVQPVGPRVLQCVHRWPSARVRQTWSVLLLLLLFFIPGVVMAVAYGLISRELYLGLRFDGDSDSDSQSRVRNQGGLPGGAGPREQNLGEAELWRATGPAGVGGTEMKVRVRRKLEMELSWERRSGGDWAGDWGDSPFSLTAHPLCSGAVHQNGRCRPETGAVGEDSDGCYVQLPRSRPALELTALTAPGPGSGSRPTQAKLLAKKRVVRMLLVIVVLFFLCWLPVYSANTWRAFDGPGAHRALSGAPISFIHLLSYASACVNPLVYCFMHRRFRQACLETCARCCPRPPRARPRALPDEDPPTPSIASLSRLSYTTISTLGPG
Method: Competition binding assays for the metal-free GAS1/2/3 and the corresponding metal-tagged [^natGa]Ga/[^natIn]In/[^natLu]Lu-GAS1/3 and [^natGa]Ga/[^natIn]In-GAS2 analogs were conducted against the [^125I][I-Tyr^12,Leu^15]gastrin-17 radioligand in membrane homogenates harvested from HEK293-CCK2i4svR cells, as previously described. Briefly, each of the above analogs, or unmodified Z360 serving as control, was incubated in triplicates of increasing concentrations (10^−13–10^−6 M) with [^125I][I-Tyr^12,Leu^15]gastrin-17 (50 pM, ≈40,000 cpm) and membrane homogenate in binding buffer (300 µL, pH 7.4, 50 mM HEPES, 1% BSA, 5.5 mM MgCl2, 35 µM bacitracin) for 1 h at 22 °C. Incubation was interrupted by rapid filtration through glass fiber filters (Whatman GF/B, presoaked in binding buffer for at least 1 h) on a Brandel Cell Harvester (Adi Hassel Ingenieur Büro, Munich, Germany) and subsequent rinsing with ice-cold washing buffer (10 mM HEPES pH 7.4, 150 mM NaCl). The radioactivity content of individual filters was measured in a gamma counter (automated multi-sample well-type instrument with a NaI(Tl) 3′ crystal, Canberra Packard Cobra^TM Quantum U5003/1, Auto-Gamma® counting system). The 50% inhibitory concentration (IC50) was determined by nonlinear regression analysis according to a one-site model using PRISM 6 (Graph Pad Software, San Diego, CA, USA). Values are expressed as mean ± standard deviation (SD) of three independent experiments performed in triplicate.

HEK293-CCK2i4svR cells = experiment: Radioligand uptake and internalization in HEK293-CCK2i4svR cells; assay type: cell-based, human; details: 1 h 37 °C, specific, of total added activity
Method: A day before the experiment, HEK293-CCK2i4svR cells were seeded in six-well plates. The next day, cells were rinsed with ice-cold internalization medium (IM: DMEM Glutamax-I, supplemented by 1% (v/v) FBS) and then the fresh medium was added (1.2 mL) at 37 °C. A further portion of IM (150 µL) was added in the upper well-row, and DG2 solution in IM (150 µL) was added in the lower row (to a final concentration of 1 μM; non-specific series). Each of the test radioligands, [^67Ga]Ga/[^111In]In/[^177Lu]Lu-GAS1/3 and [^67Ga]Ga/[^111In]In-GAS2, was finally added (250 fmol total conjugates in 150 μL 0.5% BSA-PBS) in all the wells and the plates were incubated at for 1 h at 37 °C in an Incubator-Orbital Shaker unit (MPM Instr. SrI, Bernareggio, MI, Italy); [^111In]In-GAS1/2/3 were incubated for 15 min, 30 min, 1 h and 2 h. At the predetermined time points, the plates were placed on ice, the medium was collected, and the plates were rinsed with 0.5% BSA-PBS (1 mL). Cells were subsequently treated with an acid-wash solution (2 × 600 µL; 50 mM glycine buffer pH 2.8, 0.1 M NaCl) and the fractions collected (membrane-bound). After briefly washing with 0.5% BSA-PBS (1 mL), the cells were lysed with 1 N NaOH (2 × 600 µL), and the fractions were collected (internalized). The radioactivity content of collected fractions was counted in the gamma counter, and the percentage of internalized and membrane-bound fractions per time point were calculated with Microsoft Excel. Specific internalized and membrane-bound counts were determined by subtracting the respective non-specific (in the presence of 1 μM DG2) from the respective total counts. Results represent specific internalized/membrane bound ± SD of total added radioactivity per well from three experiments performed in triplicate.

[2] = tested on: SCID mice bearing twin HEK293-CCK2i4svR and wtHEK293 tumors; experiment: Biodistribution in SCID mice bearing twin HEK293-CCK2i4svR and wtHEK293 xenografts; assay type: in vivo
Method: Inocula containing a suspension of freshly harvested HEK293-CCK2i4svR/wtHEK293 cells (150 μL, 1.8 × 10^7/1.4 × 10^7 cells, respectively, in normal saline) were subcutaneously (sc) injected in the right and left flanks of male SCID mice (24.5 ± 2.3 g body weight, six weeks of age on arrival day, NCSR “Demokritos” Animal House Facility). Well-palpable tumors (0.42 ± 0.37/0.25 ± […], respectively) were grown at the inoculation site 3–4 weeks later, and biodistribution was conducted. On the day of biodistribution, animals were divided into groups of four and received the radioligand through the tail vein as a bolus (100 μL, containing each of: i. 78–91 kBq [^67Ga]GAS1/2/3 corresponding to 7–17 pmol GAS1/2/3; ii. 74–92 kBq [^111In]GAS1/2/3 corresponding to 20–25 pmol GAS1/2/3; iii. 730 kBq [^177Lu]Lu-GAS1/3 corresponding to 40 pmol GAS1/3, in-vehicle: saline/EtOH 9/1 v/v). Animals were euthanized at predetermined time intervals depending upon the radionuclide applied (for [^67Ga]Ga-GAS1/2/3: 1, 4 and 24 h pi; for [^111In]In-GAS1/2/3: 4 and 24 h pi–two extra groups of mice receiving gelofusine together with [^111In]In-GAS1/2 at 4 and 24 h pi were included; and for [^177Lu]Lu-GAS1/3: 4, 24, 48, 72 and 96 h pi). Mice were dissected, and blood samples, organs of interest and tumors were rapidly collected, weighted and counted in the gamma counter. Biodistribution data was calculated as the percentage of the administered dose per gram tissue (%IA/g) with the aid of suitable standards of the administered dose and the Microsoft Excel program. Results are presented as mean % IA/g values ± SD, n = 4 per time point, as determined by the PRISM^TM 6.0 GraphPad software (San Diego, CA, USA).

SMILES: CC(C)(C)C(=O)CN1C(=O)[C@H](NC(=O)Nc2cccc(C(=O)NCCOCCOCCOCCNC(=O)[C@H](CCC(=O)O)NC(=O)CCC(C(=O)O)N3CCN(CC(=O)[O-])CCN(CC(=O)[O-])CCN(CC(=O)[O-])CC3)c2)CN(C2CCCCC2)c2ccccc21.[In+3] (stereo partly drawn) [[^natIn]In-GAS3]
IC50 [1]: 1.9 ± 0.2 nM

SMILES: CC(C)(C)C(=O)CN1C(=O)[C@H](NC(=O)Nc2cccc(C(=O)NCCOCCOCCOCCNC(=O)[C@H](CCC(=O)O)NC(=O)CCC(C(=O)O)N3CCN(CC(=O)[O-])CCN(CC(=O)[O-])CCN(CC(=O)[O-])CC3)c2)CN(C2CCCCC2)c2ccccc21.[67Ga+3] (stereo in doubt) [[^67Ga]Ga-GAS3]
Cell uptake (internalized + membrane-bound) (HEK293-CCK2i4svR cells): 4.95 ± 0.51%
Biodistribution, Blood ([2]; 1 h pi): 8.61 ± 1.17 %IA/g
Biodistribution, CCK2i4svR(+) Tumor ([2]; 1 h pi): 21.75 ± 4.90 %IA/g
Biodistribution, CCK2i4svR(-) Tumor ([2]; 1 h pi): 2.52 ± 0.28 %IA/g
Biodistribution, Femur ([2]; 1 h pi): 1.60 ± 0.31 %IA/g
Biodistribution, Heart ([2]; 1 h pi): 2.23 ± 0.38 %IA/g
Biodistribution, Intestines ([2]; 1 h pi): 1.53 ± 0.19 %IA/g
Biodistribution, Kidneys ([2]; 1 h pi): 9.09 ± 1.51 %IA/g
Biodistribution, Liver ([2]; 1 h pi): 5.62 ± 0.40 %IA/g
Biodistribution, Lungs ([2]; 1 h pi): 4.32 ± 0.58 %IA/g
Biodistribution, Muscle ([2]; 1 h pi): 0.82 ± 0.14 %IA/g
Biodistribution, Pancreas ([2]; 1 h pi): 2.51 ± 0.22 %IA/g
Biodistribution, Spleen ([2]; 1 h pi): 1.96 ± 0.13 %IA/g
Biodistribution, Stomach ([2]; 1 h pi): 1.51 ± 0.13 %IA/g
Biodistribution, Blood ([2]; 4 h pi): 2.23 ± 0.39 %IA/g
Biodistribution, CCK2i4svR(+) Tumor ([2]; 4 h pi): 20.39 ± 3.96 %IA/g
Biodistribution, CCK2i4svR(-) Tumor ([2]; 4 h pi): 1.15 ± 0.18 %IA/g
Biodistribution, Femur ([2]; 4 h pi): 0.78 ± 0.10 %IA/g
Biodistribution, Heart ([2]; 4 h pi): 0.76 ± 0.07 %IA/g
Biodistribution, Intestines ([2]; 4 h pi): 1.59 ± 0.19 %IA/g
Biodistribution, Kidneys ([2]; 4 h pi): 7.86 ± 0.48 %IA/g
Biodistribution, Liver ([2]; 4 h pi): 4.97 ± 0.74 %IA/g
Biodistribution, Muscle ([2]; 4 h pi): 0.25 ± 0.05 %IA/g
Biodistribution, Pancreas ([2]; 4 h pi): 0.77 ± 0.11 %IA/g
Biodistribution, Spleen ([2]; 4 h pi): 1.60 ± 0.39 %IA/g
Biodistribution, Stomach ([2]; 4 h pi): 0.61 ± 0.12 %IA/g
Biodistribution, Blood ([2]; 24 h pi): 0.14 ± 0.02 %IA/g
Biodistribution, CCK2i4svR(+) Tumor ([2]; 24 h pi): 5.37 ± 1.00 %IA/g
Biodistribution, CCK2i4svR(-) Tumor ([2]; 24 h pi): 0.61 ± 0.08 %IA/g
Biodistribution, Femur ([2]; 24 h pi): 0.52 ± 0.07 %IA/g
Biodistribution, Heart ([2]; 24 h pi): 0.17 ± 0.02 %IA/g
Biodistribution, Intestines ([2]; 24 h pi): 0.39 ± 0.06 %IA/g
Biodistribution, Kidneys ([2]; 24 h pi): 1.98 ± 0.45 %IA/g
Biodistribution, Liver ([2]; 24 h pi): 2.48 ± 0.34 %IA/g
Biodistribution, Lungs ([2]; 24 h pi): 2.43 ± 1.04 %IA/g
Biodistribution, Muscle ([2]; 24 h pi): 0.06± 0.00 %IA/g
Biodistribution, Pancreas ([2]; 24 h pi): 0.17 ± 0.03 %IA/g
Biodistribution, Spleen ([2]; 24 h pi): 1.67 ± 0.37 %IA/g
Biodistribution, Stomach ([2]; 24 h pi): 0.19 ± 0.03 %IA/g
Background clearance / excretion route ([2]; mouse, in vivo): cleared mainly via the kidneys

SMILES: CC(C)(C)C(=O)CN1C(=O)[C@H](NC(=O)Nc2cccc(C(=O)NCCOCCOCCOCCNC(=O)[C@H](CCC(=O)O)NC(=O)CN3CCN(CC(=O)[O-])CCN(CC(=O)[O-])CCN(CC(=O)[O-])CC3)c2)CN(C2CCCCC2)c2ccccc21.[Lu+3] [[^natLu]Lu-GAS1]
IC50 [1]: 12.4 ± 0.2 nM

SMILES: CC(C)(C)C(=O)CN1C(=O)[C@H](NC(=O)Nc2cccc(C(=O)NCCOCCOCCOCCNC(=O)[C@H](CCC(=O)O)NC(=O)CN3CCN(CC(=O)[O-])CCN(CC(=O)[O-])CCN(CC(=O)[O-])CC3)c2)CN(C2CCCCC2)c2ccccc21.[In+3] [[^natIn]In-GAS1]
IC50 [1]: 5 ± 1.1 nM

SMILES: CC(C)(C)C(=O)CN1C(=O)[C@H](NC(=O)Nc2cccc(C(=O)NCCOCCOCCOCCNC(=O)[C@H](CCC(=O)O)NC(=O)CCC(C(=O)O)N3CCN(CC(=O)[O-])CCN(CC(=O)[O-])CCN(CC(=O)[O-])CC3)c2)CN(C2CCCCC2)c2ccccc21.[Ga+3] (stereo partly drawn) [[^natGa]Ga-GAS3]
IC50 [1]: 4.8 ± 0.6 nM

SMILES: CC(C)(C)C(=O)CN1C(=O)[C@H](NC(=O)Nc2cccc(C(=O)NCCOCCOCCOCCNC(=O)[C@H](CCC(=O)O)NC(=O)CCC(C(=O)O)N3CCN(CC(=O)[O-])CCN(CC(=O)[O-])CCN(CC(=O)[O-])CC3)c2)CN(C2CCCCC2)c2ccccc21.[Lu+3] (stereo partly drawn) [[^natLu]Lu-GAS3]
IC50 [1]: 4.3 ± 0.9 nM

Other lines, results leading:

IC50 [1]: 8.8 ± 1.6 nM
SMILES: CC(C)(C)C(=O)CN1C(=O)[C@H](NC(=O)Nc2cccc(C(=O)NCCOCCOCCOCCNC(=O)[C@H](CCC(=O)O)NC(=O)CCC(C(=O)[O-])N3CCN(CC(=O)[O-])CCN(CC(=O)[O-])CC3)c2)CN(C2CCCCC2)c2ccccc21.[Ga+3] (stereo partly drawn) [[^natGa]Ga-GAS2]

IC50 [1]: 13.8 ± 2.7 nM
SMILES: CC(C)(C)C(=O)CN1C(=O)[C@H](NC(=O)Nc2cccc(C(=O)NCCOCCOCCOCCNC(=O)[C@H](CCC(=O)O)NC(=O)CN3CCN(CC(=O)[O-])CCN(CC(=O)[O-])CCN(CC(=O)[O-])CC3)c2)CN(C2CCCCC2)c2ccccc21.[Ga+3] [[^natGa]Ga-GAS1]

IC50 [1]: 53.2 ± 2.7 nM
SMILES: CC(C)(C)C(=O)CN1C(=O)[C@H](NC(=O)Nc2cccc(C(=O)NCCOCCOCCOCCNC(=O)[C@H](CCC(=O)O)NC(=O)CCC(C(=O)[O-])N3CCN(CC(=O)[O-])CCN(CC(=O)[O-])CC3)c2)CN(C2CCCCC2)c2ccccc21.[In+3] (stereo partly drawn) [[^natIn]In-GAS2]
